Experimental findings from ChEMBL document CHEMBL5523729, “Development of Degraders of Cyclin-Dependent Kinases 4 and 6 Based on Rational Drug Design” (J Med Chem, 2024) are described below.

In general, Emax refers to the size of the effect at its maximum, as opposed to the concentration needed. In general, DC50 refers to the midpoint of the concentration-degradation curve. What is called IC50 is the concentration needed to halve the response being measured.

Active and inactive are the calls of the source. The calls are words filed in the database; no cut-off is given here.

Experiment [1] addresses T1, Protein cereblon/Cyclin-dependent kinase 6 (Homo sapiens, UniProt Q00534+Q96SW2). The experiment can be described thus: PROTAC activity at CDK6/CRBN in human Jurkat cells assessed as maximal protein degradation by Western blot analysis relative to control. The format is cell-based. In general terms: A western blot detects proteins with antibodies after separation by electrophoresis.
Target sequence in this assay (Q00534 whole entry, looked up): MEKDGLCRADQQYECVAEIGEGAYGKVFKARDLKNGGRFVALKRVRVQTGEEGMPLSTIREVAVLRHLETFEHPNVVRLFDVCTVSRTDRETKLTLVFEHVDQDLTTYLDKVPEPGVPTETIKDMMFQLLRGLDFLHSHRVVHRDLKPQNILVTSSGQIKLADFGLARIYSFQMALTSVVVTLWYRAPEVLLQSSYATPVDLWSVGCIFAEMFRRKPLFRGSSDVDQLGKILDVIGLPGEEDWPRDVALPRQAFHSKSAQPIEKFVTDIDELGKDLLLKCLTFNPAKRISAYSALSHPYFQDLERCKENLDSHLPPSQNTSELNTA
Target sequence in this assay (Q96SW2 whole entry, looked up): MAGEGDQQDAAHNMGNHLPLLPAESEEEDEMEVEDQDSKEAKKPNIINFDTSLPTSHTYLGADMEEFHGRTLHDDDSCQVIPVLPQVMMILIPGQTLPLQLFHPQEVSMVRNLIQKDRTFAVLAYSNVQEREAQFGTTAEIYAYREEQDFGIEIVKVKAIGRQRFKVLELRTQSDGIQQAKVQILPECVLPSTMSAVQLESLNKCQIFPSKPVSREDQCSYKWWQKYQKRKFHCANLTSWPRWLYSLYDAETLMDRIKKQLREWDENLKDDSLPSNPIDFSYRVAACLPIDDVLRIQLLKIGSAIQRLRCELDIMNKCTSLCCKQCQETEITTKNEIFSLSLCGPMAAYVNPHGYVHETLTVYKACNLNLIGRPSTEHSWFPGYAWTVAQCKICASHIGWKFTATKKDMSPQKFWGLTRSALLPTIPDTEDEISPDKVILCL

The target of experiment [2] is T1, Protein cereblon/Cyclin-dependent kinase 6. As to the kind of experiment: PROTAC activity at CDK6/CRBN in human Jurkat cells assessed as protein degradation by Western blot analysis. The format is cell-based.
Target sequence in this assay (Q00534 whole entry): as the sequence (Q00534 whole entry, looked up) above
Target sequence in this assay (Q96SW2 whole entry): as the sequence (Q96SW2 whole entry, looked up) above
For experiment [3], the target named is T2, Protein cereblon/Cyclin-dependent kinase 4 (Homo sapiens, UniProt P11802+Q96SW2). As to the kind of experiment: PROTAC activity at CDK4/CRBN in human Jurkat cells assessed as protein degradation by Western blot analysis. In kind it is cell-based.
Target sequence in this assay (P11802 whole entry): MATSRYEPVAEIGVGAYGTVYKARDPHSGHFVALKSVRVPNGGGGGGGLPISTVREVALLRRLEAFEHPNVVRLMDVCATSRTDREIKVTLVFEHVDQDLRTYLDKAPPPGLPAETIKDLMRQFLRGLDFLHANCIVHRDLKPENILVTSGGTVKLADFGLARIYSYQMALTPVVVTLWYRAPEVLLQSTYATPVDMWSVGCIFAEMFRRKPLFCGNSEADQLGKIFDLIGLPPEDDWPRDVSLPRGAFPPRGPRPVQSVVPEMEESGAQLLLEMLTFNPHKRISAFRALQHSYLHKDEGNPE
Target sequence in this assay (Q96SW2 whole entry): as the sequence (Q96SW2 whole entry, looked up) above
The target in experiment [4] is T2, Protein cereblon/Cyclin-dependent kinase 4. As to the kind of experiment: PROTAC activity at CDK4/CRBN in human Jurkat cells assessed as maximal protein degradation by Western blot analysis relative to control. The format is cell-based.
Target sequence in this assay (P11802 2-303 limits assumed): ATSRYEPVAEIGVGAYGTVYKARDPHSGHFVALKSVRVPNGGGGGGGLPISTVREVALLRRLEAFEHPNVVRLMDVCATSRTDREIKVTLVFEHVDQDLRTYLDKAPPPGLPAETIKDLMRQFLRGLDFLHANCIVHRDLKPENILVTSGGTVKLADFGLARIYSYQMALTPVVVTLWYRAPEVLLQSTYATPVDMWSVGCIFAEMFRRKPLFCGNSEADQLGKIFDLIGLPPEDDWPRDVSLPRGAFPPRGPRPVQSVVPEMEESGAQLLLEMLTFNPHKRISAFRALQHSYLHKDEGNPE
Target sequence in this assay (Q96SW2 whole entry partner): as the sequence (Q96SW2 whole entry, looked up) above
In experiment [5] the target is Cyclin-dependent kinase 6 (Homo sapiens, UniProt Q00534). The experiment can be described thus: Inhibition of CDK6 (unknown origin).
The target in experiment [6] is Cyclin-dependent kinase 4 (Homo sapiens, UniProt P11802). As to the kind of experiment: Inhibition of CDK4 (unknown origin).
Experiment [7] deals with Jurkat. The experiment can be described thus: Anti-proliferative activity against human Jurkat cells assessed as cell growth inhibition measured after 72 hrs by CCK8 assay. In kind it is functional, cell-based.
The target of experiment [8] is Protein cereblon/Cyclin-dependent kinase 7 (Homo sapiens) (UniProt P50613+Q96SW2). As to the kind of experiment: PROTAC activity at CDK7/CRBN in human Jurkat cells assessed as protein degradation at 1 uM measured after 24 hrs by Western blot analysis. In kind it is cell-based.
Experiment [9] deals with T2, Protein cereblon/Cyclin-dependent kinase 4. As to the kind of experiment: PROTAC activity at CDK4/CRBN in human Jurkat cells assessed as protein degradation at 1 uM measured after 24 hrs by Western blot analysis. In kind it is cell-based.
Target sequence in this assay (P11802 2-303 limits assumed): as the sequence (P11802 2-303 limits assumed) above
Target sequence in this assay (Q96SW2 whole entry partner): as the sequence (Q96SW2 whole entry, looked up) above
For experiment [10], the target named is Protein cereblon/Cyclin-dependent kinase 1 (Homo sapiens) (UniProt P06493+Q96SW2). As to the kind of experiment: PROTAC activity at CDK1/CRBN in human Jurkat cells assessed as protein degradation at 1 uM measured after 24 hrs by Western blot analysis. The format is cell-based.
For experiment [11], the system named is Jurkat. The experiment can be described thus: Anti-tumor activity against human Jurkat cells assessed as suppression of p-RB (Ser780) at 1 uM by Western blot analysis. In kind it is functional, cell-based.
The target of experiment [12] is Protein cereblon/Cyclin-dependent kinase 2 (Homo sapiens) (UniProt P24941+Q96SW2). As to the kind of experiment: PROTAC activity at CDK2/CRBN in human Jurkat cells assessed as protein degradation at 1 uM measured after 24 hrs by Western blot analysis. The format is cell-based.
Experiment [13] has as its target T1, Protein cereblon/Cyclin-dependent kinase 6. The experiment can be described thus: PROTAC activity at CDK6/CRBN in human Jurkat cells assessed as protein degradation at 1 uM after 12 hrs by Western blot analysis. The format is cell-based.
Target sequence in this assay (Q00534 whole entry, looked up): as the sequence (Q00534 whole entry, looked up) above
Target sequence in this assay (Q96SW2 whole entry, looked up): as the sequence (Q96SW2 whole entry, looked up) above
Experiment [14] has as its target Protein cereblon/Cyclin-dependent kinase 5 (Homo sapiens) (UniProt Q00535+Q96SW2). The experiment can be described thus: PROTAC activity at CDK5/CRBN in human Jurkat cells assessed as protein degradation at 1 uM measured after 24 hrs by Western blot analysis. The format is cell-based.
In experiment [15] the test system is Jurkat. As to the kind of experiment: Anti-tumor activity against human Jurkat cells assessed as increase in cleaved PARP level by Western blot analysis. The format is functional, cell-based. Conditions: dose 1-1000 nM.
The test system of experiment [16] is Jurkat. As to the kind of experiment: Induction of apoptosis in human Jurkat cells assessed as apoptotic cells measured after 24 hrs by Annexin V-FITC/PI staining based analysis. The format is functional, cell-based. Particulars: dose 0.1-1 µM.
Experiment [17] concerns the target T1, Protein cereblon/Cyclin-dependent kinase 6. As to the kind of experiment: PROTAC activity at CDK6/CRBN in human Jurkat cells assessed as protein degradation at 1 to 1000 nM by Western blot analysis. The format is cell-based. Particulars: dose 1-1000 nM, time 3-24 hrs, TDE = time-dependent effect.
Target sequence in this assay (Q00534 whole entry, looked up): as the sequence (Q00534 whole entry, looked up) above
Target sequence in this assay (Q96SW2 whole entry, looked up): as the sequence (Q96SW2 whole entry, looked up) above
The target of experiment [18] is Protein cereblon/Cyclin-dependent kinase 8 (Homo sapiens) (UniProt P49336+Q96SW2). The experiment can be described thus: PROTAC activity at CDK8/CRBN in human Jurkat cells assessed as protein degradation at 1 uM measured after 24 hrs by Western blot analysis. In kind it is cell-based.
The target in experiment [19] is T2, Protein cereblon/Cyclin-dependent kinase 4. As to the kind of experiment: PROTAC activity at CDK4/CRBN in human Jurkat cells assessed as protein degradation at 1 uM after 12 hrs by Western blot analysis. In kind it is cell-based.
Target sequence in this assay (P11802 2-303 limits assumed): as the sequence (P11802 2-303 limits assumed) above
Target sequence in this assay (Q96SW2 whole entry partner): as the sequence (Q96SW2 whole entry, looked up) above
The subject of experiment [20] is Jurkat. The experiment can be described thus: Cell cycle arrest in human Jurkat cells assessed as accumulation of cells at G1 phase measured after 24 hrs by flow cytometry. In kind it is functional, cell-based. Conditions: dose 0.1-1 µM. (In general: Flow cytometry measures light scatter and fluorescence of single cells or particles in a stream.)
Experiment [21] deals with Jurkat. The experiment can be described thus: Anti-tumor activity against human Jurkat cells assessed as increase in cleaved caspase-3 level by Western blot analysis. Conditions: dose 1-1000 nM. In kind it is functional, cell-based.
The target of experiment [22] is T2, Protein cereblon/Cyclin-dependent kinase 4. As to the kind of experiment: PROTAC activity at CDK4/CRBN in human Jurkat cells assessed as protein degradation at 1 to 1000 nM by Western blot analysis. In kind it is cell-based. Particulars: dose 1-1000 nM, time 3-24 hrs, TDE = time-dependent effect.
Target sequence in this assay (P11802 2-303 limits assumed): as the sequence (P11802 2-303 limits assumed) above
Target sequence in this assay (Q96SW2 whole entry partner): as the sequence (Q96SW2 whole entry, looked up) above
Experiment [23] concerns the target T1, Protein cereblon/Cyclin-dependent kinase 6. As to the kind of experiment: PROTAC activity at CDK6/CRBN in human Jurkat cells assessed as protein degradation after 3 to 24 hrs by Western blot analysis. The format is cell-based. Particulars: dose 1-1000 nM, time 3-24 hrs.
Target sequence in this assay (Q00534 whole entry, looked up): as the sequence (Q00534 whole entry, looked up) above
Target sequence in this assay (Q96SW2 whole entry, looked up): as the sequence (Q96SW2 whole entry, looked up) above
The target in experiment [24] is T2, Protein cereblon/Cyclin-dependent kinase 4. As to the kind of experiment: PROTAC activity at CDK4/CRBN in human Jurkat cells assessed as protein degradation after 3 to 24 hrs by Western blot analysis. In kind it is cell-based. Particulars: dose 1-1000 nM, time 3-24 hrs.
Target sequence in this assay (P11802 2-303 limits assumed): as the sequence (P11802 2-303 limits assumed) above
Target sequence in this assay (Q96SW2 whole entry partner): as the sequence (Q96SW2 whole entry, looked up) above

Sequence of Protein cereblon/Cyclin-dependent kinase 8 (Homo sapiens) (P49336 whole entry, looked up): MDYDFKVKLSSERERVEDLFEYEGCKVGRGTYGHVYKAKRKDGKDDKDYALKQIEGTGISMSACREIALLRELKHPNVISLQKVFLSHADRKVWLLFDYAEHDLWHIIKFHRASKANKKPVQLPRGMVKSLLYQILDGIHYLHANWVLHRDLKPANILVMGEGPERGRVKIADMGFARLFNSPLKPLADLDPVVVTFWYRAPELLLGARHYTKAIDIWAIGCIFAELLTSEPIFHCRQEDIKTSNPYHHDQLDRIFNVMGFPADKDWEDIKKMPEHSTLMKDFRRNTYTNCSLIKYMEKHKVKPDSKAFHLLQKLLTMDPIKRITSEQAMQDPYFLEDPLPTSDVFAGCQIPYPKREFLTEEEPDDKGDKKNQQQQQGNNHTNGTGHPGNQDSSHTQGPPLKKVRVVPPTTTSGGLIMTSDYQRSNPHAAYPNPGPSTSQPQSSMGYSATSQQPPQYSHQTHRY
Sequence of Protein cereblon/Cyclin-dependent kinase 8 (Homo sapiens) (Q96SW2 whole entry, looked up): as the sequence (Q96SW2 whole entry, looked up) above
Sequence of Cyclin-dependent kinase 4 (P11802 whole entry): as the sequence (P11802 whole entry) above

Turning to `O=C1CCC(N2C(=O)c3ccc(N4CCN(CC5CCN(C(=O)CN6CCN(c7ccc(Nc8ncc9ncc(=O)n(C%10CCCC%10)c9n8)cc7)CC6)CC5)CC4)cc3C2=O)C(=O)N1` (configuration not stated), the results for the Emax in experiment [1] and in experiment [4] were 90% and 68%, respectively. The DC50 in experiment [2] worked out at 2.3 nM; in [3], 138 nM.

For the molecule `O=C1CCC(N2C(=O)c3ccc(N4CCN(C(=O)CN5CCN(c6ccc(Nc7ncc8ncc(=O)n(C9CCCC9)c8n7)cc6)CC5)CC4)cc3C2=O)C(=O)N1` (configuration not stated), the values for the Emax in [1] and in experiment [4] were 86% and 75%, respectively. The DC50 in experiment [2] was determined as 3.9 nM; in experiment [3] it was 9.8 nM.

Take `O=C1CCC(N2C(=O)c3cccc(NCCOCCN4CCN(c5ccc(Nc6ncc7ncc(=O)n(C8CCCC8)c7n6)cc5)CC4)c3C2=O)C(=O)N1` (configuration not stated): the Emax in [1] was 91%; in experiment [4] it was 60%. Besides, the 50% degradation concentration (DC50) in experiment [2] came out at 93 nM; in experiment [3] it was 162 nM.

`O=c1cnc2cnc(Nc3ccc(N4CCNCC4)cc3)nc2n1C1CCCC1`: the results for the IC50 in experiment [5], in experiment [6] and in experiment [7] were 88 nM, 7.7 nM and 1470 nM, respectively.

With `O=C1CCC(N2C(=O)c3cccc(NCCOCCOCCN4CCN(c5ccc(Nc6ncc7ncc(=O)n(C8CCCC8)c7n6)cc5)CC4)c3C2=O)C(=O)N1` (configuration not stated), the Emax was 94% in [1] and 53% in experiment [4]. The values for the DC50 in experiment [2] and in experiment [3] were 5.3 nM and 557 nM, respectively.

In the case of `CC(=O)c1c(C)c2cnc(Nc3ccc(N4CCNCC4)cn3)nc2n(C2CCCC2)c1=O` [PALBOCICLIB], the IC50 in experiment [7] came out at 1500 nM.

As to `O=C(CN1CCN(c2ccc(Nc3ncc4ncc(=O)n(C5CCCC5)c4n3)cc2)CC1)NCCCCNc1cccc2c1C(=O)N(C1CCC(=O)NC1=O)C2=O` (configuration not stated), the Emax in [1] came to 40%; in experiment [4] it was 14%. Besides, the DC50 in experiment [2] and in [3] was greater than 1000 nM in each case.

As to `O=C1CCC(N2C(=O)c3cccc(NC(=O)CCCCCCC(=O)N4CCN(c5ccc(Nc6ncc7ncc(=O)n(C8CCCC8)c7n6)cc5)CC4)c3C2=O)C(=O)N1` (configuration not stated), the Emax in experiment [1] was 92%; in [4] it was 60%. Besides, the 50% degradation concentration (DC50) in experiment [2] is 43.3 nM; in [3], 434 nM.

As to `O=C(CCCCN1CCN(c2ccc(Nc3ncc4ncc(=O)n(C5CCCC5)c4n3)cc2)CC1)NCCNc1cccc2c1C(=O)N(C1CCC(=O)NC1=O)C2=O` (configuration not stated), the result in experiment [8], in experiment [9], in experiment [10], in experiment [12], in experiment [14] and in [18] was inactive. Besides, the Emax is 96% in experiment [1] and 100% in [4]. For the same molecule, the outcome in experiment [11] was Active. For the same molecule, the Activity in experiment [13] was 100%; in experiment [15], “Dose-Dependent Effect”; in experiment [16], “Dose-Dependent Effect”; in experiment [17], “Tde”; in experiment [19] it was 100%; in experiment [20], “Dose-Dependent Effect”. Besides, the Activity result in [21] was “Dose-Dependent Effect”; in [22], “Tde”; in [23] it was “Dose-Dependent Effect”; in experiment [24], “Dose-Dependent Effect”. Further, the 50% degradation concentration (DC50) in [2] turned out to be 2.5 nM; in [3] it was 10.5 nM. In addition, the concentration for half-maximal inhibition (IC50) in experiment [7] came out at 183 nM.

In the case of `O=C1CCC(N2C(=O)c3cccc(NC(=O)CCCCCN4CCN(c5ccc(Nc6ncc7ncc(=O)n(C8CCCC8)c7n6)cc5)CC4)c3C2=O)C(=O)N1` (configuration not stated), the Emax turned out to be 85% in experiment [1] and 95% in [4]. Also, the DC50 in experiment [2] was found to be 58 nM; in [3] it was 14.9 nM.

For the molecule `O=C1CCC(N2C(=O)c3cccc(NC(=O)CCCCCCN4CCN(c5ccc(Nc6ncc7ncc(=O)n(C8CCCC8)c7n6)cc5)CC4)c3C2=O)C(=O)N1` (configuration not stated), the Emax in [1] stood at 95%; in experiment [4], 41%. The DC50 in [2] is 6.6 nM; in experiment [3] it was greater than 1000 nM.

Consider `O=C1CCC(N2C(=O)c3cccc(NC(=O)CCCCCn4cc(CN5CCN(c6ccc(Nc7ncc8ncc(=O)n(C9CCCC9)c8n7)cc6)CC5)nn4)c3C2=O)C(=O)N1` (configuration not stated), for which the Emax in experiment [1] is 95%; in experiment [4] it was 42%. The DC50 in experiment [2] was 16.3 nM; in experiment [3], greater than 1000 nM.
